The subject of one data set is 148 cancer cells. The conditions noted are these: background, literature; cited from earlier work.
The conditions of data set [1]: aryl ketone linked to tertiary amines; limited intracellular exposure time; literature; cited from earlier work.
The target in the next data set is T1, SMARCA4^BD protein (Homo sapiens, UniProt P51532).
T1 construct: His6 (leader mhhhhhhgslvpr\gs, with thrombin-type site lvpr\gs) (N); made in house
Put plainly: Fluorescence polarization (FP) detection, SMARCA4 bromodomain. Format: binding. The note with it: probe 10 nM, SMARCA4^BD protein 120 nM, 2 h room temperature. The procedure:
(§1) • 1. Perform a fluorescence polarization assay on with the target protein, which has been expressed and purified from prokaryotic cells to a purity of >90%.
(§2) • 2. The fluorescence polarization assay was conducted in a 384-well plate (3820, Corning) protected from light, with an excitation wavelength of 485 nm and an emission wavelength of 520 nm. Fluorescent probe was used in the experiment, and the buffer solution was 25 mM Bis-Tris, 0.01% Triton X-100, at pH 7.5. The final concentration of DMSO after the addition of the compound was less than 1%. The final detection volume per well was 125 μl, containing 50 μl of the fluorescent probe (final concentration 10 nM), 50 μl of SMARCA2^BD protein (final concentration 50 nM) or 50 μl of SMARCA4^BD protein (final concentration 120 nM), and 25 μl of the compound at various concentrations (final concentration ranging from 0 to 100 µM with a 3-fold dilution, a total of 11 concentrations). A control group (probe+protein), a probe control group (probe only), and a blank control group (buffer only) were set up. The fluorescence values were read by an ELISA reader r (SPARK m1000 pro, TECAN) after incubation for 2 h at room temperature on a shaker. The polarization value mP is calculated based on the fluorescence values in parallel and perpendicular directions of each well, and then the inhibition rate is calculated based on the mP value:
(§3) The inhibition rate data was plotted in GraphPad Prism 8.0 software and the IC50 value was calculated.
(Fluorescence polarisation rises when a labelled molecule tumbles more slowly, as on binding a larger partner.)

The subject of a further data set is Hela cell line. Put plainly: Cell proliferation assay (CCK-8), Hela. Format: cell-based. The note with it: Homo sapiens, 72 h, Table 2, 3 days incubation with compound, read-out: Hela cell line CCK8 IC50. The protocol:
(§4) The antiproliferative activity of the compounds on the cells was determined by CCK-8 kit (C0039, Biotronik). Hela (CCL-2™, ATCC) and SW1573 (CRL-2170™, ATCC) cells were incubated with DMEM medium (11995065, Gibco) containing 10% FBS (10099141C, Gibco) at 37° C. with 5% CO2 until entering the logarithmic growth phase. In 96-well plates, 2500 cells (Hela) or 800 cells (SW1573) were added in a volume of 100 μL, the blank control group was 100 μL of medium, and after one day of incubation at 37° C., 5% CO2, 100 μL of compounds of different concentrations were added (final concentration of […], 3-fold dilution, a total of 9 concentrations), and the control group was added to 100 μL of medium and continued to incubate for 3 days (Hela) or 7 days (SW1573). Then 20 μL of CCK-8 solution were added. Finally, the absorbance at 450 nm was measured using a microplate reader (SPARK m1000 pro, TECAN) after incubation at 37° C. for 1.5 h (Hela) or 2.5 h (SW1573).
(§5) The inhibition rate of the compounds on the cells at different concentrations was calculated based on the OD values of each well, and the inhibition rate data were plotted in GraphPad Prism 8.0 software to calculate the IC50 values.

The next data set addresses T2, SMARCA2^BD protein (Homo sapiens, UniProt P51531, I1395R).
T2 construct: His-SMARCA2^BD(S1377-Q1486); His6 (leader mhhhhhhgslvpr\gs, with thrombin-type site lvpr\gs) (N); made in house
The data set is described as follows: Fluorescence polarization (FP) detection, SMARCA2 bromodomain. It is filed as binding. The note with it: probe 10 nM, SMARCA2^BD protein 50 nM, 2 h room temperature. The protocol: as §1, §2, §3

In a further data set the test system is SW1573 cell line. The data set is described as follows: Cell proliferation assay (CCK-8), SW1573. It is filed as cell-based. The conditions noted are these: Homo sapiens, SW1573, 168 h; Table 2; 7 days incubation with compound; read-out: SW1573 cell line CCK8 IC50. The protocol: as §4, §5
The test system of another data set is MCF-7 cell line. The data set is described as follows: Cell proliferation assay (CCK-8), MCF-7. It is filed as cell-based. The conditions noted are these: Homo sapiens, MCF7, 168 h; Table 1; 7 days incubation with compound; read-out: MCF-7 cell line CCK8 IC50. The protocol:
(§6) The antiproliferative activity of the compounds on the cells was determined by CCK-8 kit (C0039, Biotronik). A549 (CCL-185™, ATCC) and MCF-7 (HTB-22™, ATCC) cells were incubated with F-12K medium (30-2004, ATCC) containing 10% FBS (10099141C, Gibco) and DMEM medium (11995065, Gibco) containing 10% FBS, respectively, at 37° C. with 5% CO2 until entering the logarithmic growth phase. In 96-well plates, 2800 cells (A549) or 1000 cells (MCF-7) was added in a volume of 100 μL, the blank control group was 100 μL of medium. After one day of incubation at 37° C., 5% CO2, 100 μL of compounds of different concentrations were added (final concentration of […], 3-fold dilution, a total of 9 concentrations), and the control group was added to 100 μL of medium and continued to be incubation for 4 days (A549) or 7 days (MCF-7). According to the manufacturer's instructions, 20 μL of CCK-8 solution was added. Finally, the absorbance at 450 nm was measured using a microplate reader (SPARK m1000 pro, TECAN) after incubation at 37° C. for 2 h (A549) or 4 h (MCF-7).
as §5

The subject of the next data set is A549 cell line. Put plainly: Cell proliferation assay (CCK-8), A549. It is filed as cell-based. The conditions noted are these: Homo sapiens, A549, 96 h; Table 1; 4 days incubation with compound; read-out: A549 cell line CCK8 IC50. The procedure:
as §6, §5

SMILES strings stand for the structures.

T1 sequence (P51532 1448-1575): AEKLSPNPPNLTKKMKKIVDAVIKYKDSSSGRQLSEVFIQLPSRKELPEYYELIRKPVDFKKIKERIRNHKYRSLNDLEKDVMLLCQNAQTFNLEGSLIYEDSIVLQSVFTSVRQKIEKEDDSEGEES
T2 sequence (P51531 1377-1486 isoform P51531-2 I1395R): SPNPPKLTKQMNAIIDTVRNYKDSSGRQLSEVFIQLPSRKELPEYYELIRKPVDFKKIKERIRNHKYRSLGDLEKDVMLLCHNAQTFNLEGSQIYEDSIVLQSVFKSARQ

Turning to `O=C(/C=C/N1C[C@H]2C[C@@H]1CN2c1ccccn1)c1ccccc1O` [PFI-3], the “inhibitory activity in 148 cancer cells” value in the data set with 148 cancer cells is “did not show significant inhibitory activity”. The chemical stability result in data set [1] is given as “poor chemical stability”.
`CC(=O)N[C@H]1[C@@H]2CN(c3cc(-c4ccccc4O)nnc3N)C[C@@H]21` [Compound 21, N-((1R,5S,6s)-3-(3-amino-6-(2-hydroxyphenyl)pyridazin-4-yl)-3-azabicyclo[3.1.0]hexan-6-yl)acetamide]: the IC50 – broadly, the concentration that inhibits the measured activity by half – against SMARCA4^BD protein (Table 2) was 250 nM; in the data set with Hela cell line, 68.4 µM; against SMARCA2^BD protein (Table 2) it was 130 nM; with SW1573 cell line it was greater than 100 µM.
For `COc1ccc(C#Cc2cc(-c3ccccc3O)nnc2N)cc1` [Compound 17, 2-(6-amino-5-((4-methoxyphenyl)ethynyl)pyridazin-3-yl)phenol] the same measures were greater than 3700 nM, 66.3 µM, 1100 nM and 99 µM.
Turning to `CC(=O)N1CCN(c2cc(-c3ccccc3O)nnc2N)CC1` [Control compound, reference compound], the IC50 is 73.9 µM in the data set with MCF-7 cell line; greater than 100 µM with A549 cell line; 530 nM against SMARCA4^BD protein (Table 1); greater than 100 µM in the data set with Hela cell line; 700 nM on SMARCA2^BD protein (Table 1); greater than 100 µM with SW1573 cell line.
Regarding `Nc1nnc(-c2ccccc2O)cc1C#CC1CCC2(CCNCC2)CC1` [Compound 6c, 2-(5-((3-Azaspiro[5.5]undecan-9-yl)ethynyl)-6-aminopyridazin-3-yl)phenol], the IC50 in the data set with MCF-7 cell line turned out to be 3.7 µM; in the data set on A549 cell line it was 13.6 µM; against SMARCA4^BD protein (Table 1) it was 150 nM; against SMARCA2^BD protein (Table 1), 200 nM.
For `Nc1nnc(-c2ccccc2O)cc1C#CC1CC2(CCNCC2)C1` [Compound 10c, 2-(5-((7-Azaspiro[3.5]nonan-2-yl)ethynyl)-6-aminopyridazin-3-yl)phenol] the same measures were 7.03 µM, 14.6 µM, 140 nM and 190 nM.
`COC1(C#Cc2cc(-c3ccccc3O)nnc2N)CCC(N2CCCC2)CC1` (stereo not shown) [Compound 15, 2-(6-amino-5-((1-methoxy-4-(pyrrolidin-1-yl)cyclohexyl)ethynyl)pyridazin-3-yl)phenol]: the IC50 turned out to be 210 nM against SMARCA4^BD protein (Table 2), 25.3 µM with Hela cell line, 190 nM at SMARCA2^BD protein (Table 2) and 13.1 µM with SW1573 cell line.
For `Nc1nnc(-c2ccccc2O)cc1C#CC1CCC2(CC1)CNC2` [Compound 5c, 2-(5-((2-Azaspiro[3.5]nonan-7-yl)ethynyl)-6-aminopyridazin-3-yl)phenol], the IC50 in the data set with MCF-7 cell line came out at 7.65 µM; with A549 cell line it was 15.4 µM; against SMARCA4^BD protein (Table 1), 130 nM; at SMARCA2^BD protein (Table 1), 130 nM.
Consider `Nc1nnc(-c2ccccc2O)cc1C#CC1CNC1` [Compound 3c, 2-(6-amino-5-(azetidinyl-3-ethylenylidene)pyridazin-3-yl)phenol], for which the IC50 in the data set with MCF-7 cell line was 31 µM; with A549 cell line it was 73.3 µM; against SMARCA4^BD protein (Table 1), 570 nM; at SMARCA2^BD protein (Table 1), 480 nM.
For `Nc1nnc(-c2ccccc2O)cc1C#CC1CCNCC1` [Compound 1c, 2-(6-amino-5-(piperidin-4-ylethynyl)pyridazin-3-yl)phenol] the same measures were 12 µM, 25.4 µM, 300 nM and 190 nM.
As to `Nc1nnc(-c2ccccc2O)cc1C#CC1CC2(CNC2)C1` [Compound 4c, 2-(5-((2-Azaspiro[3.3]hept-6-yl)ethynyl)-6-aminopyridazin-3-yl)phenol], the IC50 in the data set with MCF-7 cell line came to 12.4 µM; in the data set on A549 cell line, 15.7 µM; on SMARCA4^BD protein (Table 1) it was 150 nM; against SMARCA2^BD protein (Table 1) it was 190 nM.
With `Nc1nnc(-c2ccccc2O)cc1C#CC1CCNC1` (stereo not shown) [Compound 2c, 2-(6-Amino-5-(pyrrolidin-3-ylethynyl)pyridazin-3-yl)phenol], the IC50 came out at 4.73 µM in the data set with MCF-7 cell line, 7.17 µM in the data set with A549 cell line, 280 nM against SMARCA4^BD protein (Table 1) and 330 nM against SMARCA2^BD protein (Table 1).
In the case of `CN(C)[C@H]1[C@@H]2CN(c3cc(-c4ccccc4O)nnc3N)C[C@@H]21` [Compound 20, 2-(6-amino-5-((1R,5S,6s)-6-(dimethylamino)-3-azabicyclo[3.1.0]hex-3-yl)pyridazin-3-yl)phenol], the IC50 against SMARCA4^BD protein (Table 2) was 120 nM; in the data set with Hela cell line, 39 µM; on SMARCA2^BD protein (Table 2), 170 nM; in the data set with SW1573 cell line, 91.2 µM.

The values are drawn from patent US20260055078A1, “COMPOUND FUNCTIONING AS SMARCA2/4 INHIBITOR AND USE THEREOF” (Gan & Lee Pharmaceuticals Co., Ltd., priority 2022, published 2026).
